Test results: US20240425500A1 (priority 2021, published 2024)

Experiments:
[1] = tested on: Pythium ultimum; assay: Pythium ultimum / liquid culture (seedling damping off); assay type: cell-based; conditions: Globisporangium ultimum, liquid culture in PDB, 24 °C, 2-3 days after application, read-out: control of Pythium ultimum (inhibition of growth, photometric) compared to untreated control
Summary of the method: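 Mycelia fragments and oospores from fresh liquid culture mixed into potato dextrose broth and added to compound in DMSO. Incubated at 24° C.; growth inhibition read photometrically 2–3 days after application.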

[2] = tested on: Plasmopara viticola; assay: whole plant or invertebrate; assay type: in vivo; conditions: foliar, read-out: control of Plasmopara viticola compared to untreated control
[3] = tested on: Phytophthora infestans; assay: whole plant or invertebrate; assay type: in vivo; conditions: in Solanum lycopersicum, foliar, read-out: control of Phytophthora infestans compared to untreated control

COC(=O)Nc1ccc(-c2cnc3ccc(C(=O)N(C)c4ccc(F)c(C)c4)cn23)cn1 [Compound 48, methyl N-[5-[6-[(4-fluoro-3-methyl-phenyl)-methyl-carbamoyl]imidazo[1,2-a]pyridin-3-yl]-2-pyridyl]carbamate]
≥ 80%: inhibition at 20 ppm [1] | pest or weed control at 200 ppm [2] | pest or weed control at 200 ppm [3]

CC(=O)Nc1ccc(-c2cnc3ccc(C(=O)N(C)c4ccc(Cl)cc4)cn23)cn1 [Compound 3, 3-(6-acetamido-3-pyridyl)-N-(4-chlorophenyl)-N-methyl-imidazo [1,2-a]pyridine-6-carboxamide]
≥ 80%: inhibition at 20 ppm [1] | pest or weed control at 200 ppm [2] | pest or weed control at 200 ppm [3]

COC(=O)Nc1ccc(-c2cnc3ccc(C(=O)N(C)c4ccc(C#N)c(Cl)c4)cn23)cn1 [Compound 107, methyl N-[5-[6-[(3-chloro-4-cyano-phenyl)-methyl-carbamoyl]imidazo[1,2-a]pyridin-3-yl]-2-pyridyl]carbamate]
≥ 80%: inhibition at 20 ppm [1] | pest or weed control at 200 ppm [2] | pest or weed control at 200 ppm [3]

COC(=O)Nc1ccc(-c2cnc3c(Cl)cc(C(=O)N(C)c4ccc(F)cc4)cn23)cn1 [Compound 85, methyl N-[5-[8-chloro-6-[(4-fluorophenyl)-methyl-carbamoyl]imidazo[1,2-a]pyridin-3-yl]-2-pyridyl]carbamate]
≥ 80%: inhibition at 20 ppm [1] | pest or weed control at 200 ppm [2] | pest or weed control at 200 ppm [3]

COC(=O)Nc1ccc(-c2cnc3c(OC)cc(C(=O)N(C)c4ccc(F)cc4)cn23)cn1 [Compound 84, methyl N-[5-[6-[(4-fluorophenyl)-methyl-carbamoyl]-8-methoxy-imidazo[1,2-a]pyridin-3-yl]-2-pyridyl]carbamate]
≥ 80%: inhibition at 20 ppm [1] | pest or weed control at 200 ppm [2] | pest or weed control at 200 ppm [3]

COC(=O)Nc1ccc(-c2cnc3ccc(C(=O)N(C)c4cccc(OC)c4)cn23)cc1 [Compound 7, methyl N-[4-[6-[(3-methoxyphenyl)-methyl-carbamoyl]imidazo[1,2-a]pyridin-3-yl]phenyl]carbamate]
≥ 80%: inhibition at 20 ppm [1] | pest or weed control at 200 ppm [2] | pest or weed control at 200 ppm [3]

COCc1cc(C(=O)N(C)c2ccc(F)cc2)cn2c(-c3ccc(NC(=O)OC)nc3)cnc12 [Compound 172, methyl N-[5-[6-[(4-fluorophenyl)-methyl-carbamoyl]-8-(methoxymethyl)imidazo[1,2-a]pyridin-3-yl]-2-pyridyl]carbamate]
≥ 80%: inhibition at 20 ppm [1] | pest or weed control at 200 ppm [2] | pest or weed control at 200 ppm [3]

COC(=O)Nc1ccc(-c2cnc3ccc(C(=O)N(C)c4ccc(F)c(Cl)c4)cn23)cn1 [Compound 113, methyl N-[5-[6-[(3-chloro-4-fluoro-phenyl)-methyl-carbamoyl]imidazo[1,2-a]pyridin-3-yl]-2-pyridyl]carbamate]
≥ 80%: inhibition at 20 ppm [1] | pest or weed control at 200 ppm [2] | pest or weed control at 200 ppm [3]

COC(=O)Nc1ccc(-c2cnc3ccc(C(=O)N(C)c4ccc(F)cc4)cn23)cn1 [Compound 25, methyl N-[5-[6-[(4-fluorophenyl)-methyl-carbamoyl]imidazo[1,2-a]pyridin-3-yl]-2-pyridyl]carbamate]
≥ 80%: inhibition at 20 ppm [1] | pest or weed control at 200 ppm [2] | pest or weed control at 200 ppm [3]

COC(=O)Nc1ccc(-c2cnc3c(C)cc(C(=O)N(C)c4ccc(F)c(Cl)c4)cn23)cn1 [Compound 171, methyl N-[5-[6-[(3-chloro-4-fluoro-phenyl)-methyl-carbamoyl]-8-methyl-imidazo[1,2-a]pyridin-3-yl]-2-pyridyl]carbamate]
≥ 80%: inhibition at 20 ppm [1] | pest or weed control at 200 ppm [2] | pest or weed control at 200 ppm [3]

COC(=O)Nc1ccc(-c2cnc3cc(C)c(C(=O)N(C)c4ccc(F)cc4)cn23)cn1 [Compound 86, methyl N-[5-[6-[(4-fluorophenyl)-methyl-carbamoyl]-7-methyl-imidazo[1,2-a]pyridin-3-yl]-2-pyridyl]carbamate]
≥ 80%: inhibition at 20 ppm [1] | pest or weed control at 200 ppm [2] | pest or weed control at 200 ppm [3]

COC(=O)Nc1ccc(-c2cnc3ccc(C(=O)N(C)c4ccc(Cl)c(OC)c4)cn23)cn1 [Compound 75, methyl N-[5-[6-[(4-chloro-3-methoxy-phenyl)-methyl-carbamoyl]imidazo[1,2-a]pyridin-3-yl]-2-pyridyl]carbamate]
≥ 80%: inhibition at 20 ppm [1] | pest or weed control at 200 ppm [2] | pest or weed control at 200 ppm [3]

COCCN(C(=O)c1ccc2ncc(-c3ccc(NC(=O)OC)nc3)n2c1)c1ccc(F)c(OC)c1 [Compound 173, methyl N-[5-[6-[(4-fluoro-3-methoxy-phenyl)-(2-methoxyethyl)carbamoyl]imidazo[1,2-a]pyridin-3-yl]-2-pyridyl]carbamate]
≥ 80%: inhibition at 20 ppm [1] | pest or weed control at 200 ppm [2] | pest or weed control at 200 ppm [3]

COC(=O)Nc1ccc(-c2cnc3ccc(C(=O)N(CCC#N)c4cccc(OC)c4)cn23)cn1 [Compound 149, methyl N-[5-[6-[2-cyanoethyl-(3-methoxyphenyl)carbamoyl]imidazo[1,2-a]pyridin-3-yl]-2-pyridyl]carbamate]
≥ 80%: inhibition at 20 ppm [1] | pest or weed control at 200 ppm [2] | pest or weed control at 200 ppm [3]

CCN(C(=O)c1ccc2ncc(-c3ccc(NC(=O)OC)nc3)n2c1)c1ccc(F)c(F)c1 [Compound 105, methyl N-[5-[6-[(3,4-difluorophenyl)-ethyl-carbamoyl]imidazo[1,2-a]pyridin-3-yl]-2-pyridyl]carbamate]
≥ 80%: inhibition at 20 ppm [1] | pest or weed control at 200 ppm [2] | pest or weed control at 200 ppm [3]

COC(=O)Nc1ccc(-c2cnc3ccc(C(=O)N(c4ccc(F)cc4)C4CC4)cn23)cn1 [Compound 110, methyl N-[5-[6-[cyclopropyl-(4-fluorophenyl)carbamoyl]imidazo [1,2-a]pyridin-3-yl]-2-pyridyl]carbamate]
≥ 80%: inhibition at 20 ppm [1] | pest or weed control at 200 ppm [2] | pest or weed control at 200 ppm [3]

COCN(C(=O)c1ccc2ncc(-c3ccc(NC(=O)OC)nc3)n2c1)c1ccc(F)c(OC)c1 [Compound 93, methyl N-[5-[6-[(4-fluoro-3-methoxy-phenyl)-(methoxymethyl)carbamoyl]imidazo[1,2-a]pyridin-3-yl]-2-pyridyl]carbamate]
≥ 80%: inhibition at 20 ppm [1] | pest or weed control at 200 ppm [2] | pest or weed control at 200 ppm [3]

COC(=O)Nc1ccc(-c2cnc3ccc(C(=O)N(C)c4ccc(Cl)cc4)cn23)cc1 [Compound 2, methyl N-[4-[6-[(4-chlorophenyl)-methyl-carbamoyl]imidazo[1,2-a]pyridin-3-yl]phenyl]carbamate]
≥ 80%: inhibition at 20 ppm [1] | pest or weed control at 200 ppm [2] | pest or weed control at 200 ppm [3]

COC(=O)Nc1ccc(-c2cnc3ccc(C(=O)N(C)c4ccc(C#N)cc4)cn23)cc1 [Compound 6, methyl N-[4-[6-[(4-cyanophenyl)-methyl-carbamoyl]imidazo[1,2-a]pyridin-3-yl]phenyl]carbamate]
≥ 80%: inhibition at 20 ppm [1] | pest or weed control at 200 ppm [2] | pest or weed control at 200 ppm [3]

COC(=O)Nc1ccc(-c2cnc3c(C)cc(C(=O)N(C)c4ccc(F)cc4)cn23)cn1 [Compound 82, methyl N-[5-[6-[(4-fluorophenyl)-methyl-carbamoyl]-8-methyl-imidazo[1,2-a]pyridin-3-yl]-2-pyridyl]carbamate]
≥ 80%: inhibition at 20 ppm [1] | pest or weed control at 200 ppm [2] | pest or weed control at 200 ppm [3]

COC(=O)Nc1ccc(-c2cnc3c(C)cc(C(=O)N(C)c4ccc(Cl)cc4)cn23)cc1 [Compound 19, methyl N-[4-[6-[(4-chlorophenyl)-methyl-carbamoyl]-8-methyl-imidazo[1,2-a]pyridin-3-yl]phenyl]carbamate]
≥ 80%: inhibition at 20 ppm [1] | pest or weed control at 200 ppm [2] | pest or weed control at 200 ppm [3]

COC(=O)Nc1ccc(-c2cnc3ccc(C(=O)N(C)c4ccc(C#N)cc4)cn23)cn1 [Compound 15, methyl N-[5-[6-[(4-cyanophenyl)-methyl-carbamoyl]imidazo[1,2-a]pyridin-3-yl]-2-pyridyl]carbamate]
≥ 80%: inhibition at 20 ppm [1] | pest or weed control at 200 ppm [2] | pest or weed control at 200 ppm [3]

COC(=O)Nc1ccc(-c2cnc3ccc(C(=O)N(C)c4ccc(F)c(F)c4)cn23)cn1 [Compound 50, methyl N-[5-[6-[(3,4-difluorophenyl)-methyl-carbamoyl]imidazo[1,2-a]pyridin-3-yl]-2-pyridyl]carbamate]
≥ 80%: inhibition at 20 ppm [1] | pest or weed control at 200 ppm [2] | pest or weed control at 200 ppm [3]

COC(=O)Nc1ccc(-c2cnc3c(OC)cc(C(=O)N(C)c4ccc(Cl)cc4)cn23)cc1 [Compound 37, methyl N-[4-[6-[(4-chlorophenyl)-methyl-carbamoyl]-8-methoxy-imidazo[1,2-a]pyridin-3-yl]phenyl]carbamate]
≥ 80%: inhibition at 20 ppm [1] | pest or weed control at 200 ppm [2] | pest or weed control at 200 ppm [3]

COCCN(C(=O)c1ccc2ncc(-c3ccc(NC(=O)OC)nc3)n2c1)c1ccc(F)cc1 [Compound 76, methyl N-[5-[6-[(4-fluorophenyl)-(2-methoxyethyl)carbamoyl]imidazo[1,2-a]pyridin-3-yl]-2-pyridyl]carbamate]
≥ 80%: inhibition at 20 ppm [1] | pest or weed control at 200 ppm [2] | pest or weed control at 200 ppm [3]

COC(=O)Nc1ccc(-c2cnc3ccc(C(=O)N(c4ccc(Cl)cc4)C4CC4)cn23)cc1 [Compound 27, methyl N-[4-[6-[(4-chlorophenyl)-cyclopropyl-carbamoyl]imidazo[1,2-a]pyridin-3-yl]phenyl]carbamate]
≥ 80%: inhibition at 20 ppm [1] | pest or weed control at 200 ppm [2] | pest or weed control at 200 ppm [3]
